Data published in ChEMBL document CHEMBL3259779, “Discovery of pyrazolopyridones as a novel class of noncovalent DprE1 inhibitor with potent anti-mycobacterial activity” (J Med Chem, 2014).
In brackets after ≈: the same amount, converted by molar mass.

Tests used:
Assay type in all cases: functional
[1] = system: Mycobacterium tuberculosis; experiment: Antimycobacterial activity against Mycobacterium tuberculosis overexpressing DprE1 assessed as growth inhibition by resazurin assay
[2] = system: Mycobacterium tuberculosis; experiment: Antimycobacterial activity against rifampin-resistant Mycobacterium tuberculosis 19000 assessed as growth inhibition after 2 to 3 weeks by turbidometry
[3] = system: Mycobacterium tuberculosis; experiment: Antimycobacterial activity against BTZ043-resistant Mycobacterium tuberculosis harboring DprE1 C-S mutant assessed as growth inhibition by resazurin assay
[4] = system: Mycobacterium tuberculosis; experiment: Antimycobacterial activity against streptomycin-resistant Mycobacterium tuberculosis 136570 assessed as growth inhibition after 2 to 3 weeks by turbidometry
[5] = system: Mycobacterium tuberculosis; experiment: Antimycobacterial activity against 3-cyclopropyl-1-phenyl-5-((3-(trifluoromethyl)benzylamino)-methyl)-1H-pyrazolo[3,4-b]pyridin-6(7H)-one-resistant Mycobacterium tuberculosis clone 8.2 assessed as growth inhibition by resazurin assay; conditions: clone 8.2, 7 h
[6] = system: Mycobacterium tuberculosis; experiment: Antimycobacterial activity against 3-cyclopropyl-1-phenyl-5-((3-(trifluoromethyl)benzylamino)-methyl)-1H-pyrazolo[3,4-b]pyridin-6(7H)-one-resistant Mycobacterium tuberculosis clone 8.3 assessed as growth inhibition by resazurin assay; conditions: clone 8.3, 7 h
[7] = system: Mycobacterium tuberculosis; experiment: Antimycobacterial activity against ethambutol-resistant Mycobacterium tuberculosis 17003 assessed as growth inhibition after 2 to 3 weeks by turbidometry
[8] = system: Mycobacterium tuberculosis; experiment: Antimycobacterial activity against 3-cyclopropyl-1-phenyl-5-((3-(trifluoromethyl)benzylamino)-methyl)-1H-pyrazolo[3,4-b]pyridin-6(7H)-one-resistant Mycobacterium tuberculosis clone 8.1 assessed as growth inhibition by resazurin assay; conditions: clone 8.1, 7 h
[9] = system: Mycobacterium tuberculosis; experiment: Antimycobacterial activity against isoniazid-resistant Mycobacterium tuberculosis 912253 assessed as growth inhibition after 2 to 3 weeks by turbidometry
[10] = system: Mycobacterium tuberculosis; experiment: Antimycobacterial activity against BTZ043-resistant Mycobacterium tuberculosis harboring DprE1 C-G mutant assessed as growth inhibition by resazurin assay
[11] = system: Mycobacterium tuberculosis; experiment: Antimycobacterial activity against ofloxacin-resistant Mycobacterium tuberculosis 12119 assessed as growth inhibition after 2 to 3 weeks by turbidometry

Compound	MIC [1]	MIC [2]	MIC [3]	MIC [4]	MIC [5]	MIC [6]	MIC [7]	MIC [8]	MIC [9]	MIC [10]	MIC [11]
Cc1nn(-c2ccccc2)c2[nH]c(=O)c(CNCc3cccc(C(F)(F)F)c3)cc12	2.5 µM (≈ 1.03 µg/mL)	3.1 µM (≈ 1.28 µg/mL)	100 µM (≈ 41.2 µg/mL)	3.1 µM (≈ 1.28 µg/mL)	100 µM (≈ 41.2 µg/mL)	0.2 µM (≈ 0.0825 µg/mL)	3.1 µM (≈ 1.28 µg/mL)	> 100 µM	6.2 µM (≈ 2.56 µg/mL)	0.3 µM (≈ 0.124 µg/mL)	1.6 µM (≈ 0.66 µg/mL)
O=c1[nH]c2c(cc1CNCc1cccc(C(F)(F)F)c1)c(C1CC1)nn2-c1ccccc1	0.6 µM (≈ 0.263 µg/mL)	1.6 µM (≈ 0.702 µg/mL)	>100 µM	1.6 µM (≈ 0.702 µg/mL)	0.1 µM (≈ 0.0438 µg/mL)	0.2 µM (≈ 0.0877 µg/mL)	1.6 µM (≈ 0.702 µg/mL)	50 µM (≈ 21.9 µg/mL)	3.1 µM (≈ 1.36 µg/mL)	50 µM (≈ 21.9 µg/mL)	1.6 µM (≈ 0.702 µg/mL)
O=c1[nH]c2c(cc1CNCc1cccc(C(F)(F)F)n1)c(C1CC1)nn2-c1ccccc1	50 µM (≈ 22 µg/mL)	–	100 µM (≈ 43.9 µg/mL)	–	> 100 µM	0.2 µM (≈ 0.0879 µg/mL)	–	1.2 µM (≈ 0.527 µg/mL)	–	100 µM (≈ 43.9 µg/mL)	–
O=c1[nH]c2c(cc1CNCc1cc(C(F)(F)F)ccc1F)c(C1CC1)nn2-c1ccccc1	100 µM (≈ 45.6 µg/mL)	–	1.2 µM (≈ 0.548 µg/mL)	–	0.08 µM (≈ 0.0365 µg/mL)	0.2 µM (≈ 0.0913 µg/mL)	–	100 µM (≈ 45.6 µg/mL)	–	25 µM (≈ 11.4 µg/mL)	–
O=c1[nH]c2c(cc1CNCc1cccc(C(F)(F)F)c1F)c(C1CC1)nn2-c1ccccc1	25 µM (≈ 11.4 µg/mL)	–	>100 µM	–	0.04 µM (≈ 0.0183 µg/mL)	0.2 µM (≈ 0.0913 µg/mL)	–	0.6 µM (≈ 0.274 µg/mL)	–	1.2 µM (≈ 0.548 µg/mL)	–
Cc1ccc(C(F)(F)F)cc1CNCc1cc2c(C3CC3)nn(-c3ccccc3)c2[nH]c1=O	1.2 µM (≈ 0.543 µg/mL)	–	0.3 µM (≈ 0.136 µg/mL)	–	> 100 µM	0.2 µM (≈ 0.0905 µg/mL)	–	0.3 µM (≈ 0.136 µg/mL)	–	>100 µM	–
C[C@H]1COC2(CCN(c3nc(=O)c4cc(C(F)(F)F)cc([N+](=O)[O-])c4s3)CC2)O1 [BTZ-043]	> 100 µM	–	0.3 µM (≈ 0.129 µg/mL)	–	100 µM (≈ 43.1 µg/mL)	12.5 µM (≈ 5.39 µg/mL)	–	> 100 µM	–	0.6 µM (≈ 0.259 µg/mL)	–
CC[C@@H](CO)NCCN[C@@H](CC)CO [ETHAMBUTOL]	–	2 µM (≈ 0.409 µg/mL)	–	2 µM (≈ 0.409 µg/mL)	–	–	> 20 µM	–	2 µM (≈ 0.409 µg/mL)	–	2 µM (≈ 0.409 µg/mL)
NNC(=O)c1ccncc1 [ISONIAZID]	100 µM (≈ 13.7 µg/mL)	0.2 µM (≈ 0.0274 µg/mL)	0.1 µM (≈ 0.0137 µg/mL)	0.2 µM (≈ 0.0274 µg/mL)	> 100 µM	0.2 µM (≈ 0.0274 µg/mL)	0.2 µM (≈ 0.0274 µg/mL)	100 µM (≈ 13.7 µg/mL)	> 29 µM	0.3 µM (≈ 0.0411 µg/mL)	0.2 µM (≈ 0.0274 µg/mL)
CC1COc2c(N3CCN(C)CC3)c(F)cc3c(=O)c(C(=O)O)cn1c23 (stereo not drawn) [OFLOXACIN]	–	0.7 µM (≈ 0.253 µg/mL)	–	0.7 µM (≈ 0.253 µg/mL)	–	–	0.7 µM (≈ 0.253 µg/mL)	–	0.7 µM (≈ 0.253 µg/mL)	–	> 5 µM
CO[C@H]1/C=C/O[C@@]2(C)Oc3c(C)c(O)c4c(O)c(c(/C=N/N5CCN(C)CC5)c(O)c4c3C2=O)NC(=O)/C(C)=C\C=C\[C@H](C)[C@H](O)[C@@H](C)[C@@H](O)[C@@H](C)[C@H](OC(C)=O)[C@@H]1C [RIFAMPIN]	–	> 5 µM	–	0.02 µM (≈ 0.0165 µg/mL)	–	–	0.02 µM (≈ 0.0165 µg/mL)	–	0.02 µM (≈ 0.0165 µg/mL)	–	0.02 µM (≈ 0.0165 µg/mL)
CN[C@@H]1[C@H](O[C@H]2[C@H](O[C@H]3[C@H](O)[C@@H](O)[C@H](N=C(N)N)[C@@H](O)[C@@H]3N=C(N)N)O[C@@H](C)[C@]2(O)C=O)O[C@@H](CO)[C@H](O)[C@H]1O [STREPTOMYCIN]	–	0.3 µM (≈ 0.174 µg/mL)	–	> 5 µM	–	–	0.3 µM (≈ 0.174 µg/mL)	–	0.3 µM (≈ 0.174 µg/mL)	–	0.3 µM (≈ 0.174 µg/mL)
